# Paper PMC12040169 (PLOS Biology, 2025)
# Assay: in vitro
# Details: human, hela cells, % viability
row,Structure (SMILES),"viability at 28.5 h, 10 µM"
1,COC(=O)NC(NC(=O)OC)C(=O)c1ccccc1 [CBK020208],100%
2,O=S(=O)(NC(c1c[nH]c2ccccc12)C(Cl)(Cl)Cl)c1ccccc1 (centres unmarked) [CBK263279],91.7%
3,CCOC(=O)c1ccc(-c2[nH]cnc2-c2c(C)cc(OC)cc2O)o1 [CBK026647],113%
4,C=CCSc1nc2sc3c(c2c(=O)[nH]1)CCCC3 [CBK287344],110%
5,Nc1ncc(-c2occc2C=O)nc1NC1CCOCC1 [CBK063789],103%
6,COc1ccc(OC)c(NC(=O)NCCc2c[nH]cn2)c1 [CBK269956],92.4%
7,COc1ccc(C(NC(=O)[C@H]2CCCN2C(=O)c2c(-c3ccccc3)noc2C)c2ccccc2C)cn1 (some centres unmarked) [CBK075055],98.4%
8,Cc1cc(C)n(CCNC2CCN(c3ccccc3C)CC2)c(=O)n1 [CBK306848],89.1%
9,C/C(=N/OCO/N=C(\C)c1cccc([N+](=O)[O-])c1)c1cccc([N+](=O)[O-])c1 [CBK260872],89%
10,CC(=O)OCc1c(C)cc(C)c(CN(C)C(C)c2ccon2)c1C (centres unmarked) [CBK306780],79.3%
11,O=C(Cc1ccccc1F)N1CCC(c2n[nH]c3ncccc23)CC1 [CBK284908],89.6%
12,O=C(c1cccnc1NCc1ccc2c(c1)OCO2)N1CCNCC1 [CBK156112T],104%
13,COc1ccc2oc(C(=O)N(C)CC(C)OC)c(C)c2c1 (centres unmarked) [CBK282037],94.4%
14,Nc1ccn([C@@H]2O[C@H](CO)[C@H](O)C2O)c(=S)n1 (some centres unmarked) [CBK201293],90.9%
15,COCCNc1nccnc1-c1cccc(C(F)(F)F)c1 [CBK037330],89.7%
16,Cc1cc(=O)c2ccccc2n1CC(=O)N1CCNC(=O)C1C (centres unmarked) [CBK306511],109%
17,COc1cc(OC)c(S(=O)(=O)N2CCOCC2)cc1S(=O)(=O)N1CCOCC1 [CBK267564],98.1%

row,Structure (SMILES),"viability at 28.5 h, 10 µM"
1,Cc1cccc(NC(=O)CN2C(=O)S/C(=C\c3cc(C)n(-c4ccc(N(C)C)cc4)c3C)C2=O)c1 [CBK264586],96.9%
2,COc1cccc(COc2nccnc2/C=C/c2ccccc2)c1OC [CBK106888],89.3%
3,COc1ccc(-c2cc(=O)[nH]c(N3CCN(C)CC3)n2)cc1 [CBK003849],90.4%
4,CC(C)(C)c1ccc(S(=O)(=O)N2CCCCC2CCO)cc1[N+](=O)[O-] (centres unmarked) [CBK200067],93.9%
5,CCCNc1cncc(-c2cccc(CO)c2)n1 [CBK065433],95.7%
6,O=C(COc1cccc2ccccc12)NNC(=O)Cc1ccc(Cl)cc1 [CBK262988],112%
7,Cc1ccc2nc(-c3ccc4c(c3)CCN4S(C)(=O)=O)cn2c1 [CBK285185],96.6%
8,COC(C)CN(C)C(=O)c1cc2cc(C)ccc2nc1C (centres unmarked) [CBK282036],86.5%
9,CC1C(=O)N(c2ccc(Cl)c(Cl)c2)C(=N)N1c1nc(N(C)C)nc(N(C)C)n1 (centres unmarked) [CBK263182],93.2%
10,O=C(CSCc1ccc(Br)cc1)N1CCN(Cc2ccc3c(c2)OCO3)CC1 [CBK268059],89.7%
11,CC(C)(C)NC(=O)N1CCC(=O)N1 [CBK007341],95.9%
12,COc1ccc(-c2cc(=O)oc3cc(OC(C)C(=O)O)ccc23)cc1 (centres unmarked) [CBK286696],105%
13,CCc1nc2c(Oc3nc4ccccc4s3)cccn2c1N(C)C(=O)C(C)C [CBK147765],88.5%
14,O=C(O)C(=N\Nc1ccccc1)/C(=N/Nc1ccccc1)C(=O)O [CBK278303N],100%
15,CN(C)CCCN(Cc1cnn(C)c1)Cc1ccco1 [CBK283039],112%
16,O=C(Nc1ccc(O)cc1C(=O)O)c1cccc(Br)c1 [CBK018511],89.1%
17,CN(C)c1ccc(C(=O)N2CCN3C(=O)[C@H](Cc4ccc(F)cc4)NC(=O)[C@H]3C2)cc1 [CBK289601],109%

# Same assay, conditions: human, hela cells, % viability, bulk resorufin, single well
row,Structure (SMILES),"viability at 28.5 h, 10 µM"
1,O=C1NC(=O)C(CCC(=O)N2CCN(c3nc4ccccc4s3)CC2)C(=O)N1 [CBK285807],86.6%
